The ΔTm is the shift of the melting midpoint relative to a reference. A word on the melting point: it is the temperature of the solid-liquid transition. By solubility is commonly meant the dissolved amount per volume that the medium holds. A higher solubility goes with a readily soluble substance.

Structures are written as SMILES. Some results are limits rather than exact numbers.

Data set [1] is described as follows: Hydrolytic stability in KPi buffer without thiol (NMR). Particulars: over 12 hours, 50 mM KPi, footnote a: crashing out of solution, no degradation product. It is filed as physicochemical.
Another data set concerns the target T1, β-catenin ARD (Homo sapiens, UniProt P35222).
T1 construct: vector pLipK-ARD (residues 150 – 662) was used; 6xHis-Lip (6xHis, lipoyl domain); made in house; host or cells: E. coli BL21(DE3) pRARE2
T1 sequence (P35222 150-662): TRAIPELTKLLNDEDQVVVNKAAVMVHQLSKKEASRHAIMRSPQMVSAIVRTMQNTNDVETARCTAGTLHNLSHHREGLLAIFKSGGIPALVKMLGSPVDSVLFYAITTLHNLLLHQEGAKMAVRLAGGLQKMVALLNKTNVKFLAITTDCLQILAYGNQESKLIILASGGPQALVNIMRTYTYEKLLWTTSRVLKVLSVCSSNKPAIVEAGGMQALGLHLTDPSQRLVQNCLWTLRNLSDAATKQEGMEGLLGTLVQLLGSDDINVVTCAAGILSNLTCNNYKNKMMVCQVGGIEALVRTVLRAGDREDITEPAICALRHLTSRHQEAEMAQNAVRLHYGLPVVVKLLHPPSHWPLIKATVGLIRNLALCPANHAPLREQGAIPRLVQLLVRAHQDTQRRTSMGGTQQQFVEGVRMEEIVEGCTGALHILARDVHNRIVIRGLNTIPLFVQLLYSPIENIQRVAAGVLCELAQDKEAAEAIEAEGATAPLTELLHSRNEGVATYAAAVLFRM
As to the kind of experiment: Differential scanning fluorimetry (DSF). It is filed as binding. Conditions: 100 μM compound; 8 µM β-cat; read-out: Protein thermal stability ΔTm. The source says:
(§1) We also probed the general effect of 2-SPs on protein stability by using differential scanning fluorimetry (DSF). […] Mutants of the 25 kDa DNA-binding domain of the tumor suppressor p53 are notorious for their reduced thermal stability and denaturation/aggregation propensity.[37] The 56 kDa armadillo domain (ARD) of β-catenin mediates canonical Wnt signaling and plays a central role in embryogenesis and tissue homeostasis.[38] FGE (37 kDa) is the only known activator of human sulfatases, and its stability is susceptible to modification of its cysteines.[39] […]
Human β-catenin armadillo domain. β-catenin sequence was amplified by PCR (KOD DNA polymerase, Merck Millipore) from plasmid templates and cloned into bacterial expression vectors by restriction - free cloning. All plasmids were verified by sequencing. For protein pro duction, bacterial expression vector pLipK-ARD (residues 150 – 662) was used. 6xHis-Lip-tagged recombinant proteins were purified from BL21(DE3) pRARE2 E. coli bacterial strains. Bacteria were grown in LB media supplemented with appropriate antibiotic to OD600 0.6, then dropped to a lower temperature (16 – 24 °C) and induced at OD600 0.8 by addition of 0.4 mM isopropyl β -D-1-thiogalactopyranoside (IPTG). Proteins were expressed overnight and bacteria were subsequently harvested by centrifugation, cell pelle ts shock-frozen in liquid nitrogen and stored at -80°C until use. Cell pellets were re -suspended in lysis buffer (25 mM Tris -HCl pH 8, 200 mM NaCl, 20 mM imidazole, 10 μg/mL DNAse, EDTA -free protease inhibitor cocktail) and lysed with an Emulsiflex C-3 (Avestin). Lysates were cleared by ultracentrifugation (140,000x rcf, 30 minutes, 4°C) and mixed with Ni-NTA agarose. Beads were washed multiple times with lysis buffer, and 6xHisLip - tagged protein was eluted with lysis buffer supplemented with 500 mM imidazo le. The protein was further purified by SEC on a HiPrep26/60 G200 (GE Healthcare) into the final buffer of 200 mM NaCl, 25 mM Tris pH 7.4, 0.06% NaN3, 1 mM DTT, and protein purity was assessed by SDS -PAGE. Pure protein fractions were concentrated using a 1 0 kDa MWCO Vivaspin 20 concentrator (Sartorius) to 17 – 28 mg/mL, then shock frozen as droplets in liquid nitrogen and stored at -80°C until use. […]
On the technique in general: DSF heats the sample and reads unfolding from a dye or from intrinsic fluorescence.

The target in another data set is T2, FGE-C341S (Homo sapiens, UniProt Q8NBK3, C341S).
T2 construct: His7 (C); made in house; host or cells: High Five insect cells (baculovirus, pAcGP67B-His7)
T2 sequence (Q8NBK3 34-374 C341S): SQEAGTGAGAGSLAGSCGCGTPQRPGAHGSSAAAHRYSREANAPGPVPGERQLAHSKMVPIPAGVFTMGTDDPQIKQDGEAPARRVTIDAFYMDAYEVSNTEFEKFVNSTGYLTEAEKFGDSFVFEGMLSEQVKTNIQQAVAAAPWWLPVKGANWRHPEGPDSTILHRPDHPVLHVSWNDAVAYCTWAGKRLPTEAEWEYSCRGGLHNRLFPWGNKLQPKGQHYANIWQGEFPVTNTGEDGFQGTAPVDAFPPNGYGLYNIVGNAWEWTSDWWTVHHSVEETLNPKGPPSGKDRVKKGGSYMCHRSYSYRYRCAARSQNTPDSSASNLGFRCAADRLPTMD
Description: Differential scanning fluorimetry (DSF). Conditions: 100 μM compound; 10 µM FGE; read-out: Protein thermal stability ΔTm. It is filed as binding.
Excerpt: as §1
The cloning of human FGE-WT cDNA into baculoviral transfer vector pAcGP67B-His7 and the generation of the recombinant virus (in Sf9 cells) for expression of C-terminally His-tagged recombinant human FGE in High Five insect cells have been […]
were generated by site -directed PCR mutagenesis using pAcGP67B-FGE-WT-His7 as template and the […]
-3’. All expression plasmids were verified by sequencing of the entire coding region to exclude any undesired PCR -derived errors. The purification method was essentially performed as described in Peng et al., with one modification. The size exclusion […]
chromatography (His -trap) step foll owed directly by a second step purification using the ion -exchange column chromatography (Resource -Q). […]

Data set [2] is described as follows: Solubility in KPi buffer by NMR with TMSP internal standard. Conditions: 50 mM KPi aqueous buffer, pH 7, aqueous with cosolvent or surfactant or cyclodextrin, kinetic from dmso stock.

`CS(=O)(=O)c1nccc(C(=O)O)n1` [4d] gave a melting point of 115 to 118 °C. For the same compound, the “% degradation” value in data set [1] (pH 7.0) is listed as less than 5%. Further, the “% degradation” value in data set [1] (pH 8.2) was less than 5%. The thermal shift (ΔTm) at 100 µM on β-catenin ARD was -0.1 ± 0.1 °C. Moreover, the thermal shift (ΔTm) at 100 µM at FGE-C341S was -0.4 ± 0.3 °C. The same compound had a solubility in data set [2] not below 2000 µM.
`O=S(=O)(CC(F)(F)F)c1ncccn1` [5e]: the melting point is 91 to 92 °C. For the same compound, the “% degradation” value in data set [1] (pH 7.0) is reported as 100%. Further, the “% degradation” value in data set [1] (pH 8.2) was determined as 100%. In addition, the ΔTm at 100 µM on β-catenin ARD is -6.9 ± 1 °C. Moreover, the ΔTm at 100 µM on FGE-C341S is -0.6 °C. The compound further came in with a solubility in data set [2] not below 2000 µM.
For `CC(C)(C)S(=O)(=O)c1ncccn1` [5a], the melting point amounted to 58 °C. In addition, the “% degradation” value in data set [1] (pH 7.0) is recorded as less than 5%. Moreover, the ΔTm at 100 µM at β-catenin ARD was -0.1 ± 0.1 °C. On FGE-C341S, the ΔTm at 100 µM is -0.2 ± 0.3 °C. Further, the solubility in data set [2] is not below 2000 µM.

For the origin of these results see publication PMC10515483, “Structure–Reactivity Studies of 2-Sulfonylpyrimidines Allow Selective Protein Arylation” (Bioconjugate Chemistry, 2023).
